In patent publication US12390437B2, “Itaconic acid derivatives and uses thereof intreating an inflammatory disease or a disease associated with an undesirable immune response” (Sitryx Therapeutics Limited, priority 2019, dated 2025):
Counter-ions that a name gives are not always drawn. Like-named read-outs stand apart in the source and are kept apart here.

Key:
[1] = test system: IL-1β cytokine output from THP-1s; assay: THP-1 AlphaLISA IL-1β cytokine assay; type: cell-based, human; conditions: Homo sapiens, read-out: IL-1β (IC50)
In short: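 THP-1 cells, PMA-differentiated 72 h; 30 min compound pre-incubation; LPS 24 h; nigericin 1 h; 37 °C/5% CO2. Supernatants read by AlphaLISA kit. IC50 from % inhibition vs concentration, normalised to +LPS (high) and −LPS (low) controls.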

NRF2 = NRF2 +/-GSH activation assay (DiscoverX PathHunter NRF2 translocation kit, U2OS cells); type: cell-based; conditions: Homo sapiens
In short: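 PathHunter U2OS cells, plated 24 hrs, measured NRF2 nuclear translocation by enzyme-fragment complementation luminescence after 6 hours compound exposure at 37 °C. For +GSH, compound was pre-incubated 30 minutes with GSH (6 mM working stock). EC50 from % activation normalised to dimethyl fumarate high control.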

[2] = Hepatocyte stability assay (human); type: in vitro ADME; conditions: cryopreserved hepatocytes, 10 μM compound, 0.5×10^6 cells/mL, 60 minutes, read-out: T½
Text: (§1) Defrosted cryo-preserved hepatocytes (viability >70%) are used to determine the metabolic stability of a compound via calculation of intrinsic clearance (Clint; a measure of the removal of a compound from the liver in the absence of blood flow and cell binding). Clearance data are particularly important for in vitro work as they can be used in combination with in vivo data to predict the half-life and oral bioavailability of a drug.
(§2) The metabolic stability in hepatocytes assay involves a time-dependent reaction using both positive and negative controls. The cells must be pre-incubated at 37° C. then spiked with test compound (and positive control); samples taken at pre-determined time intervals are analysed to monitor the change in concentration of the initial drug compound over 60 minutes. A buffer incubation reaction (with no hepatocytes present) acts as a negative control and two cocktail solutions, containing compounds with known high and low clearance values (verapamil/7-hydroxycoumarin and propranolol/diltiazem), act as positive controls. • 1. The assay is run with a cell concentration of 0.5×10^6 cells/mL in Leibovitz buffer. • 2. All compounds and controls are run in duplicate. • 3. Compound concentration is 10 μM. • 4. All compounds and controls are incubated with both cells and buffer to show turnover is due to hepatic metabolism. • 5. All wells on the incubation plate will have 326.7 μL of either cells or buffer added. • 6. Prior to assay, cell and buffer-only incubation plates are preincubated for 10 mins at 37° C. • 7. The assay is initiated by adding compounds, 3.3 μL of 1 mM in 10% DMSO-90% Buffer; final DMSO concentration is 0.1%. • 8. Samples are taken at regular timepoints (0, 5, 10, 20, 40, 60 min) until 60 mins. • 9. Sample volume is 40 μL and it is added to 160 μL of crash solvent (acetonitrile with internal standard) and stored on ice. • 10. At the end of the assay, the crash plates are centrifuged at 3500 rpm for 20 mins at 4° C. • 11. 80 μL of clear supernatant is removed and mixed with 80 μL of deionised water before being analysed by LC-MS/MS.
(§3) Raw LC-MS/MS data are exported to, and analysed in, Microsoft Excel for determination of intrinsic clearance. The percentage remaining of a compound is monitored using the peak area of the initial concentration as 100%. Intrinsic clearance and half-life values are calculated using a graph of the natural log of percentage remaining versus the time of reaction in minutes. Half-life (min) and intrinsic clearance (Clint in μL min^−1 10^−6 cells) values are calculated using the gradient of the graph (the elimination rate constant, k) and Equations 1 and 2.

hepatocytes = assay: Hepatocyte stability assay (human); type: in vitro ADME; conditions: 10 μM compound, 0.5×10^6 cells/mL, 60 minutes
Text: as §1, §2, §3

[3] = THP-1, PMA-differentiated THP-1 cells, LPS 24 hr then Nigericin 1 hour
[4] = U2OS, normalised to dimethyl fumarate 'High' control, GSH condition not stated in Table 5, read-out: NRF2 activation Emax
[5] = U2OS PathHunter cells, 6 hours, GSH condition not stated in Table 5, read-out: NRF2 activation EC50
[6] = THP-1, Table 10, assay of Biological Example 1 (THP-1)
[7] = U2OS, Table 10, assay of Biological Example 5 (NRF2), read-out: EC50
[8] = U2OS, Table 10, assay of Biological Example 5 (NRF2), read-out: Emax

| SMILES | IC50 [1, 3] [µM] | Emax (NRF2; [4]) [%] | EC50 (NRF2; [5]) [µM] | half-life at 10 μM [2] [min] | CIint (μL min^−1 10^−6 cells) (hepatocytes) | IC50 [1, 6] [µM] | EC50 (NRF2; [7]) [µM] | Emax (NRF2; [8]) [%] |
| --- | --- | --- | --- | --- | --- | --- | --- | --- |
| C=C(CC(=O)O[C@@H](CCCCCC)C(F)(F)F)C(=O)OCC(=O)O [Example 182, (S)-2-((2-methylene-4-oxo-4-((1,1,1-trifluorooctan-2-yl)oxy)butanoyl)oxy)acetic acid] | 6.1 | 188 | 5.5 | 28 | 60 | – | – | – |
| C=C(CC(=O)OC1CCCCC1)C(=O)OCC(=O)O [Example 91, 2-((4-(cyclohexyloxy)-2-methylene-4-oxobutanoyl)oxy)acetic acid] | 48.1 | 73 | 10.1 | 352 | 4 | – | – | – |
| C=C(CC(=O)OCCCCCCCC)C(=O)OC1COC1 [Example 4, 4-octyl 1-(oxetan-3-yl) 2-methylenesuccinate] | 9.3 | 181 | 8.3 | – | – | – | – | – |
| C=C(CC(=O)OC1CCCCC1)C(=O)OCCC(=O)O [Example 87, 3-((4-(cyclohexyloxy)-2-methylene-4-oxobutanoyl)oxy)propanoic acid] | 28.1 | 113 | 34.2 | 136 | 11 | – | – | – |
| C=C(CC(=O)OCCCCCC)C(=O)OCC(=O)O [Example 94, 2-((4-(hexyloxy)-2-methylene-4-oxobutanoyl)oxy)acetic acid] | 5.3 | 193 | 22.2 | 85 | 16 | – | – | – |
| C=C(CC(=O)O[C@H](C)CCCCCC)C(=O)OCc1nn[nH]n1 [Example 161, (R)-1-((2H-tetrazol-5-yl)methyl) 4-(octan-2-yl) 2-methylenesuccinate] | 6.8 | 146 | 5 | 22 | 55 | – | – | – |
| C=C(CC(=O)O[C@H](C)CCCCCC)C(=O)OCC(=O)O [Example 112, (R)-2-((2-methylene-4-(octan-2-yloxy)-4-oxobutanoyl)oxy)acetic acid] | 14.6 | 173 | 8.9 | 25 | 65 | 14.6 | 8.9 | 173 |
| C=C(CC(=O)O[C@@H](C)CCCCCC)C(=O)OCCC(=O)O [Example 84, (S)-3-((2-methylene-4-(octan-2-yloxy)-4-oxobutanoyl)oxy)propanoic acid] | 14.3 | 185 | 6.3 | 16 | 86 | – | – | – |
| C=C(CC(=O)OC1C(C)(C)CC1(C)C)C(=O)OCC(=O)O [Example 169, 2-((2-methylene-4-oxo-4-(2,2,4,4-tetramethylcyclobutoxy)butanoyl)oxy) acetic acid] | 15.6 | – | – | 268 | 5 | – | – | – |
| C=C(CC(=O)OCCCCCCCC)C(=O)OCCC#N [Example 1, 1-(2-cyanoethyl) 4-octyl 2-methylenesuccinate] | 9.3 | 134 | 8.8 | – | – | – | – | – |
| C=C(CC(=O)OCCCCCCCC)C(=O)OCCC(F)(F)F [Example 3, 4-octyl 1-(3,3,3-trifluoropropyl) 2-methylenesuccinate] | 15.6 | – | – | – | – | – | – | – |
| C=C(CC(=O)OC1CCCCCCC1)C(=O)OC(C)c1nnn[nH]1 (stereo not shown) [Example 133, 1-(1-(1H-tetrazol-5-yl)ethyl) 4-cyclooctyl 2-methylenesuccinate] | 14.8 | 227 | 33.3 | 30 | 48 | – | – | – |
| C=C(CC(=O)OCCCCCCCC)C(=O)OCCN1C(=O)CCC1=O [Example 9, 1-(2-(2,5-dioxopyrrolidin-1-yl)ethyl) 4-octyl 2-methylenesuccinate] | 4.7 | – | – | – | – | – | – | – |
| C=C(CC(=O)O[C@@H](C)CCCCCC)C(=O)OCc1nn[nH]n1 [Example 164, (S)-1-(2H-tetrazol-5-yl)methyl 4-octan-2-yl 2-methylenesuccinate] | 2 | 168 | 4.9 | 33 | 42 | – | – | – |
| C=C(CC(=O)OCCCCCCCC)C(=O)OCC(=O)O [Example 49, 2-((2-methylene-4-(octyloxy)-4-oxobutanoyl)oxy)acetic acid] | 7.2 | 232 | 15.8 | 13 | 109 | – | – | – |
| C=C(CC(=O)OC(C)(C)CCCCC)C(=O)OCC(=O)O [Example 193, 2-((2-methylene-4-((2-methylheptan-2-yl)oxy)-4-oxobutanoyl)oxy)acetic acid] | 17.6 | – | – | 109 | 16 | – | – | – |
| C=C(CC(=O)O[C@H](CC)CCCCC)C(=O)OCC(=O)O [Example 178, (R)-2-(2-methylene-4-(octan-3-yloxy)-4-oxobutanoyloxy)acetic acid] | 24.6 | 188 | 14.3 | – | – | – | – | – |
| C=C(CC(=O)OC)C(=O)OC [dimethyl itaconate, reference compound] | > 100 | 137 | 21.4 | – | – | > 100 | 21.4 | 137 |
| C=C(CC(=O)O[C@@H](CC)CCCCC)C(=O)OCC(=O)O [Example 170, (S)-2-(2-methylene-4-(octan-3-yloxy)-4-oxobutanoyloxy)acetic acid] | 14.7 | – | – | 120 | 12 | – | – | – |
| C=C(CC(=O)OCCCCCCCC)C(=O)OCCS(C)(=O)=O [Example 2, 1-(2-(methylsulfonyl)ethyl) 4-octyl 2-methylenesuccinate] | 5 | 268 | 5.1 | – | – | – | – | – |
| COC(=O)/C=C/C(=O)OC [dimethyl fumarate, reference compound] | 14.4 | 102 | 5.6 | – | – | 14.4 | 5.6 | 102 |
